“And” between values parts separate entries of the source, which are not always exact repeats. Equal values may be shown once. Read-outs that look alike come from different tables or passages of the source. Marks after values point to notes of the source that are not given here.

As a reminder, the inhibition is the change of the read-out against control, counted positive when it falls. By IC50 is commonly meant the concentration that gives 50% inhibition.

Data set [1] relates to intestinal BCRP and hepatic OATP1B1, OATP1B3, NTCP.
Another data set addresses T1, human NTCP (SLC10A1) (Homo sapiens, UniProt Q14973).
T1 construct: host or cells: HEK293 TransportoCells
T1 sequence (Q14973 1-349): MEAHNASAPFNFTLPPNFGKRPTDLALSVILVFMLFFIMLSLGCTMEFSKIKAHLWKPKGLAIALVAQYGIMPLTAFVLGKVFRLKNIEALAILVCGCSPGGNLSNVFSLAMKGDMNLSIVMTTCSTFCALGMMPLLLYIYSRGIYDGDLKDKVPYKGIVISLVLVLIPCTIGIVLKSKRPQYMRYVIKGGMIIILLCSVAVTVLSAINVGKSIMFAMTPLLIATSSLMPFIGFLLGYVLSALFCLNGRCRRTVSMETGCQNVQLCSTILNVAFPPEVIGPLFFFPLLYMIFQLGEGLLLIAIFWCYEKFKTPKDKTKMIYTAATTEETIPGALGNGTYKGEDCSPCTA
Nature of the data set: NTCP inhibition in transporter-expressing HEK293 cells, [3H]-taurocholic acid uptake (IC50 determination). Format: cell-based. The settings on record: for IC50: NTCP-mediated transport of [3H]-taurocholic acid (1 μM), HEK293.

The target of another data set is T2, human OATP1B3 (SLCO1B3) (Homo sapiens, UniProt Q9NPD5).
T2 sequence (Q9NPD5 1-702): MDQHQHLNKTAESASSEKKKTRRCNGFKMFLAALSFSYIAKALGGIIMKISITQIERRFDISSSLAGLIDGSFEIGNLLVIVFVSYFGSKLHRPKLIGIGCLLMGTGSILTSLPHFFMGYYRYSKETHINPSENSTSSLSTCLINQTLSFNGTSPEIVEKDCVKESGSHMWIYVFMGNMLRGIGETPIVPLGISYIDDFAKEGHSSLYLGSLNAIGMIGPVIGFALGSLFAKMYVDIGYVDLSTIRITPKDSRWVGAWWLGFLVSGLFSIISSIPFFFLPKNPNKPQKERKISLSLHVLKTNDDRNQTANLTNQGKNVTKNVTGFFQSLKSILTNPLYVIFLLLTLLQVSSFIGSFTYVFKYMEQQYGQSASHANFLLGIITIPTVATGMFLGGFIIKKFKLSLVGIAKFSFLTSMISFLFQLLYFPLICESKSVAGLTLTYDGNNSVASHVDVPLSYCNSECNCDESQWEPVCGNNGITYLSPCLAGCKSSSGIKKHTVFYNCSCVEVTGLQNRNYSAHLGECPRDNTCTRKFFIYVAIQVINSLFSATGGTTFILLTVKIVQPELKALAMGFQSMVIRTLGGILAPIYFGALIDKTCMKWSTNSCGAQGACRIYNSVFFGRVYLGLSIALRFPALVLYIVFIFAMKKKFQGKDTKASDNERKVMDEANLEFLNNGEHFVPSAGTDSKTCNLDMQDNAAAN
The experiment in a line: OATP1B3 inhibition in transporter-expressing HEK293 cells, [3H]-estradiol 17β-D-glucuronide uptake (IC50 determination). To be noted: for IC50: OATP1B3-mediated transport of [3H]-estradiol 17β-D-glucuronide (0.02 μM), HEK293. The procedure:
(§1) OATP1B1, OATP1B3, NTCP and vector control cell lines were cultured and subsequent transporter assays conducted as described above using the same transporter‐specific probe substrates and incubation times. For OATP1B1, the probe substrate was [^3H]‐estradiol 17β‐D‐glucuronide (0.02 μM) incubated for 2 min, with rifamycin SV (100 μM) as positive control inhibitor. For IC50 determinations, the only difference to the method performed above was that the 15‐min pre‐incubation step contained a range of six concentrations of protease inhibitor drug, and subsequent incubations were conducted with the same six concentration levels of drug rather than with a single concentration.

The next data set deals with NTCP. The arrangement: method as in Vildhede et al.[33]. The settings on record: ref Vildhede et al.[33], cited from earlier work.
In another data set the test system is OAT3. Details: method as in Yoshida et al.[32]. The settings on record: up to 10 μM; ref Yoshida et al.[32]; cited from earlier work.
Data set [2] addresses T3, OATP1B1 (Homo sapiens, UniProt Q9Y6L6).
T3 sequence (Q9Y6L6 1-691): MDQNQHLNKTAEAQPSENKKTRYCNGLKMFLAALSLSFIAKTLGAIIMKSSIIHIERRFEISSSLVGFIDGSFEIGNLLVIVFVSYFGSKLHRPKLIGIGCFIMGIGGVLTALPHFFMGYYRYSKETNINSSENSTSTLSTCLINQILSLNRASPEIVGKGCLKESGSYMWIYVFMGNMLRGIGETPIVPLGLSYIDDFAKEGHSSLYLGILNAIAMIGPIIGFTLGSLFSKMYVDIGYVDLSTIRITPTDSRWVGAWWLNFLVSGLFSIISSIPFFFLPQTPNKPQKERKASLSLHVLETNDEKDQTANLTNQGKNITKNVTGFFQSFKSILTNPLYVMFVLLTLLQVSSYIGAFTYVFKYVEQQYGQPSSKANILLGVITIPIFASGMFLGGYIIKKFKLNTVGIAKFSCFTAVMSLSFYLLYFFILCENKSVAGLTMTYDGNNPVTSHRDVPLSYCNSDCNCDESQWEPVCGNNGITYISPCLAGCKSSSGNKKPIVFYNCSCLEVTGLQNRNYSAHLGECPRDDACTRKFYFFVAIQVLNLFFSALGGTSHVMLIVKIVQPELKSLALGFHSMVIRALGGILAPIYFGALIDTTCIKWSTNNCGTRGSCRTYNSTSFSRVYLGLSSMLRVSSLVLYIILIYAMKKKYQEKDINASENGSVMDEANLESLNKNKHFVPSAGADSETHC
The experiment in a line: OATP1B1 inhibition in transporter-expressing HEK293 cells, [3H]-estradiol 17β-D-glucuronide uptake (IC50 determination). To be noted: human, HEK293 cells expressing OATP1B1 (with vector control cells), pH 7.4, probe [3H]-estradiol 17β-D-glucuronide (0.02 μM), IC50, determined values from different occasions (OATP1B1), OATP1B1-mediated transport of [3H]-estradiol 17β-D-glucuronide (0.02 μM), HEK293; single occasion. The protocol:
as §1

The next data set addresses T4, human OATP1B1 (SLCO1B1) (Homo sapiens, UniProt Q9Y6L6).
T4 sequence (Q9Y6L6 1-691): T3 sequence (Q9Y6L6 1-691)
The description is as above. The settings on record: OATP1B1-mediated transport of [3H]-estradiol 17β-D-glucuronide (0.02 μM), HEK293. The protocol:
as §1

The conditions of data set [3]: cited from earlier work; for Cmax: read-out: [Cmax] mean steady-state maximum plasma concentration, total drug; for fu fraction unbound: in plasma, ref drug label accessed via Drugs@FDA database.
The subject of data set [4] is OATP1B1. To be noted: probe substrate atorvastatin; ref Karlgren et al.[31]; cited from earlier work.
For data set [5] the following is noted: human, in vivo.
[6] abbreviates: mean (±SD) of three occasions, read-out: IC50 mean (NTCP).
Setting [7] is: single occasion, read-out: IC50, determined values from different occasions (NTCP).
Where [8] appears, read: IC50, determined values from different occasions (OATP1B3), single occasion.
Setting [9] is: IC50 mean (OATP1B3), mean (±SD) of three occasions.
The mark [10] stands for this setting: IC50, determined values from different occasions (OATP1B1), single occasion.
Setting [11] is: IC50 mean (OATP1B1), mean (±SD) of three occasions.

As for `COC(=O)N[C@H](C(=O)N[C@@H](Cc1ccccc1)[C@@H](O)CN(Cc1ccc(-c2ccccn2)cc1)NC(=O)[C@@H](NC(=O)OC)C(C)(C)C)C(C)(C)C` [atazanavir], the inhibition in data set [1] is ~80% and 75%. Also, the “R value (NTCP)” value at human NTCP (SLC10A1) (FDA static equation R = 1 + [Iin max u]/Ki, potential for interaction if ≥1.1) amounted to 1.07. In addition, the IC50 is 65.6 µM at human NTCP (SLC10A1) (setting [6]); 55.9 µM and 63.8 µM and 77.1 µM on human NTCP (SLC10A1) (setting [7]); 1.75 µM and 2.41 µM and 1.43 µM at human OATP1B3 (SLCO1B3) (setting [8]); 1.86 µM at human OATP1B3 (SLCO1B3) (setting [9]); 0.583 µM and 0.69 µM against human OATP1B1 (SLCO1B1) (setting [10]); 0.734 µM on human OATP1B1 (SLCO1B1) (setting [11]). Also, the “Mean OATP1B3 IC50 (Ki), fold lower than previously published” value at human OATP1B3 (SLCO1B3) (against value with atorvastatin as probe substrate [33]) was determined as 3.9 fold. The “Inhibition of NTCP, published” value with NTCP (tested up to 40 μM) was “no inhibition”. Also, the “Inhibition of OAT3, published” value in the data set with OAT3 was “no inhibition”. Besides, it took 0.928 µM to reach half-maximal inhibition against OATP1B1 [2] (IC50 at 2 min). Also, the Cmax in data set [3] (clinical dose of Table 5, ref Elsby et al.[1]) was 8.68 µM. For the same compound, the fu fraction unbound in data set [3] was 0.14. In addition, the “Published IC50/Ki (OATP1B1)” value in the data set with OATP1B1 [4] is on record as 0.91 (atorvastatin) μM.
In the case of `Cc1cccc(C)c1OCC(=O)N[C@@H](Cc1ccccc1)[C@@H](O)C[C@H](Cc1ccccc1)NC(=O)[C@H](C(C)C)N1CCCNC1=O` [lopinavir], the IC50 on human NTCP (SLC10A1) (setting [6]) is 20.3 µM; at human NTCP (SLC10A1) (setting [7]), 22.6 µM and 18.4 µM and 19.9 µM; on human OATP1B3 (SLCO1B3) (setting [8]) it was 5.14 µM and 5.04 µM and 4.95 µM; against human OATP1B3 (SLCO1B3) (setting [9]), 5.04 ± 0.095 µM; on human OATP1B1 (SLCO1B1) (setting [10]), 0.291 µM and 0.207 µM and 0.162 µM; at human OATP1B1 (SLCO1B1) (setting [11]), 0.22 µM. Further, the “[Ig] maximal enterocyte concentration” value in data set [5] is recorded as 42.4 ^d μM. The “[Iin max u] unbound maximum hepatic inlet concentration” value in data set [5] came to 0.450 µM. Moreover, the “[Iin max] maximum hepatic inlet concentration” value in data set [5] is reported as 22.5 ^d μM. Further, in the data set on NTCP (tested up to 10 μM), the “Inhibition of NTCP, published” value is listed as “no inhibition”. In addition, the “Inhibition of OAT3, published” value in the data set on OAT3 is on record as “no inhibition”. Moreover, in [3] (400 mg, ref Elsby et al.[13]), the Cmax is 14.6 µM. The fu fraction unbound in [3] is 0.02.

The values are drawn from paper PMC9944867, “Mechanistic in vitro studies indicate that the clinical drug–drug interactions between protease inhibitors and rosuvastatin are driven by inhibition of intestinal BCRP and hepatic OATP1B1 with minimal contribution from OATP1B3, NTCP and OAT3” (Pharmacology Research & Perspectives, 2023).
